Test results published in patent US12480137B2, “Plants having increased tolerance to herbicides” (BASF SE, priority 2014, dated 2025).

What was measured:
Format in all cases: in vivo, Arabidopsis thaliana
[1] = test system: Cesa3_S1037F, fpx1-2 mutant line; test: Greenhouse phytotox, pre-emergent treatment
Procedure, shortened: (§1)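 Tolerance to cellulose biosynthesis inhibitors is assessed on M2 or M3 generation Arabidopsis grown in a greenhouse. Example inhibitors are fluorinated N4-aryl triazine-2,4-diamines, including N4-(4-bromo-2,3,5,6-tetrafluoro-phenyl)-6-(1-fluoro-1-methyl-ethyl)-1,3,5-triazine-2,4-diamine.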

[2] = test system: Cesa1_G1013R, fpx2-1 mutant line; test: Greenhouse phytotox, pre-emergent treatment
Procedure, shortened: as §1

[3] = test system: Cesa3_S1040L, fpx1-1 mutant line; test: Greenhouse phytotox, pre-emergent treatment
Procedure, shortened: as §1

A. thaliana WT L. erecta = test: Greenhouse phytotox, pre-emergent treatment
Procedure, shortened: as §1

[4] = test system: Cesa1_P1010L, fpx2-2 mutant line; test: Greenhouse phytotox, pre-emergent treatment
Procedure, shortened: as §1

[5] = test system: Cesa1_G1009D, fpx2-3 mutant line; test: Greenhouse phytotox, pre-emergent treatment
Procedure, shortened: as §1

[6] = test system: Cesa3_S983F, fpx1-3 mutant line; test: Greenhouse phytotox, pre-emergent treatment
Procedure, shortened: as §1

[7] = test system: Arabidopsis mutant line Cesa1_G1013R; test: Growth inhibition of Arabidopsis lines in 48-well plates, tolerance factor from IC50; conditions: growth inhibition seven to ten days after seeding
From the text: (§2) For selection of cellulose biosynthesis inhibitor resistant plants EMS mutagenized seed populations of Arabidopsis thaliana are used. EMS mutagenized seed populations are either bought from Lehle Seeds (1102 South Industrial Blvd. Suite D, Round Rock, Texas USA) or are generated as described elsewhere (Heim D R, et. al. (1989) Plant Physiol. 90: 146-150). Causative mutations in CESA wildtype sequences (e.g. SEQ ID NO: 1 or 3) are identified as described by Scheible W R et. al. (2001, Proc. Natl. Acad. of Sci. 98: 10079-10084), McCourt et. al. (WO2013/142968) or with the use of next generation sequencing methods as described by Austin R S, et. al. (2011) Plant Journal 67: 715-725.
(§3) Selected Arabidopsis thaliana lines were assayed for improved resistance to azines like 6-cyclopentyl-N4-(2,3,4,5,6-pentafluorophenyl)-1,3,5-triazine-2,4-diamine; 6-(1-fluoro-1-methyl-ethyl)-N4-(2,3,4,5,6-pentafluorophenyl)-1,3,5-triazine-2,4-diamine; 6-cyclohexyl-N2-(2,3,4,5,6-pentafluorophenyl)-1,3,5-triazine-2,4-diamine; 6-(2,6-difluorophenyl)-N2-(2,3,5,6-tetrafluorophenyl)-1,3,5-triazine-2,4-diamine; N2-(4-chloro-3,5,6-trifluoro-2-pyridyl)-6-(1-fluoro-1-methyl-ethyl)-1,3,5-triazine-2,4-diamine in 48-well plates. Therefore, M2 or M3 seeds are surface sterilized by stirring for 5 min in ethanol+water (70+30 by volume), rinsing one time with ethanol+water (70+30 by volume) and two times with sterile, deionized water. The seeds are resuspended in 0.1% agar dissolved in water (w/v) Four to five seeds per well are plated on solid nutrient medium consisting of half-strength murashige skoog nutrient solution, pH 5.8 (Murashige and Skoog (1962) Physiologia Plantarum 15: 473-497). Compounds are dissolved in dimethylsulfoxid (DMSO) and added to the medium prior solidification (final DMSO concentration 0.1%). Multi well plates are incubated in a growth chamber at 22° C., 75% relative humidity and 110 μmol Phot*m^−2*s^−1 with 14:10 h light:dark photoperiod. Growth inhibition is evaluated seven to ten days after seeding in comparison to wild type plants. Tolerance factors are calculated based on IC50 values of growth inhibition of transformed versus non-transformed Arabidopsis plants (Table 3).

[8] = test system: Arabidopsis mutant line Cesa3_S983F; test: as above; conditions: growth inhibition seven to ten days after seeding
From the text: as §2, §3

[9] = test system: Arabidopsis mutant line Cesa3_S1037F; test: as above; conditions: growth inhibition seven to ten days after seeding
From the text: as §2, §3

[10] = test system: wildtype Arabidopsis plants; test: as above; conditions: growth inhibition seven to ten days after seeding
From the text: as §2, §3

[11] = test system: Arabidopsis mutant line Cesa1_G1009D; test: as above; conditions: growth inhibition seven to ten days after seeding
From the text: as §2, §3

[12] = test system: Arabidopsis mutant line Cesa3_S1040L; test: as above; conditions: growth inhibition seven to ten days after seeding
From the text: as §2, §3

[13] = test system: Arabidopsis mutant line Cesa1_P1010L; test: as above; conditions: growth inhibition seven to ten days after seeding
From the text: as §2, §3

Nc1nc(Nc2c(F)c(F)c(F)c(F)c2F)nc(C2CCCC2)n1 [6-cyclopentyl-N4-(2,3,4,5,6-pentafluorophenyl)-1,3,5-triazine-2,4-diamine]
Phytotox value on a scale from 0-100 (100 is 100% damage) ([1]; 0.25 g ai/ha): 0
Phytotox value on a scale from 0-100 (100 is 100% damage) ([1]; 0.98 g ai/ha): 23
Phytotox value on a scale from 0-100 (100 is 100% damage) ([1]; 3.91 g ai/ha): 15
Phytotox value on a scale from 0-100 (100 is 100% damage) ([1]; 15.63 g ai/ha): 5
Phytotox value on a scale from 0-100 (100 is 100% damage) ([2]; 0.25 g ai/ha): 5
Phytotox value on a scale from 0-100 (100 is 100% damage) ([2]; 0.98 g ai/ha): 15
Phytotox value on a scale from 0-100 (100 is 100% damage) ([2]; 3.91 g ai/ha): 25
Phytotox value on a scale from 0-100 (100 is 100% damage) ([2]; 15.63 g ai/ha): 15
Phytotox value on a scale from 0-100 (100 is 100% damage) ([3]; 0.25 g ai/ha): 5
Phytotox value on a scale from 0-100 (100 is 100% damage) ([3]; 0.98 g ai/ha): 20
Phytotox value on a scale from 0-100 (100 is 100% damage) ([3]; 3.91 g ai/ha): 25
Phytotox value on a scale from 0-100 (100 is 100% damage) ([3]; 15.63 g ai/ha): 40
Phytotox value on a scale from 0-100 (100 is 100% damage) (A. thaliana WT L. erecta; 0.25 g ai/ha): 38
Phytotox value on a scale from 0-100 (100 is 100% damage) (A. thaliana WT L. erecta; 0.98 g ai/ha): 80
Phytotox value on a scale from 0-100 (100 is 100% damage) (A. thaliana WT L. erecta; 3.91 g ai/ha): 99
Phytotox value on a scale from 0-100 (100 is 100% damage) (A. thaliana WT L. erecta; 15.63 g ai/ha): 100
Phytotox value on a scale from 0-100 (100 is 100% damage) ([4]; 0.25 g ai/ha): 0
Phytotox value on a scale from 0-100 (100 is 100% damage) ([4]; 0.98 g ai/ha): 33
Phytotox value on a scale from 0-100 (100 is 100% damage) ([4]; 3.91 g ai/ha): 63
Phytotox value on a scale from 0-100 (100 is 100% damage) ([4]; 15.63 g ai/ha): 98
Phytotox value on a scale from 0-100 (100 is 100% damage) ([5]; 0.25 g ai/ha): 5
Phytotox value on a scale from 0-100 (100 is 100% damage) ([5]; 0.98 g ai/ha): 25
Phytotox value on a scale from 0-100 (100 is 100% damage) ([5]; 3.91 g ai/ha): 58
Phytotox value on a scale from 0-100 (100 is 100% damage) ([5]; 15.63 g ai/ha): 88
Phytotox value on a scale from 0-100 (100 is 100% damage) ([6]; 0.25 g ai/ha): 0
Phytotox value on a scale from 0-100 (100 is 100% damage) ([6]; 0.98 g ai/ha): 5
Phytotox value on a scale from 0-100 (100 is 100% damage) ([6]; 3.91 g ai/ha): 20
Phytotox value on a scale from 0-100 (100 is 100% damage) ([6]; 15.63 g ai/ha): 40
Relative tolerance rate (wildtype = 1.0) [7]: 25
Relative tolerance rate (wildtype = 1.0) [8]: 75
Relative tolerance rate (wildtype = 1.0) [9]: 75
Relative tolerance rate (wildtype = 1.0) [10]: 1
Relative tolerance rate (wildtype = 1.0) [11]: 3
Relative tolerance rate (wildtype = 1.0) [12]: 56
Relative tolerance rate (wildtype = 1.0) [13]: 3
